How the values were obtained:
[1] = target: Sodium-dependent dopamine transporter (Rattus norvegicus, UniProt P23977); assay: Binding affinity against dopamine transporter was determined by the displacement of [3H]WIN-35428 radioligand in rat brain; type: tissue-based
Sigma 2 receptor = assay: Binding affinity against Sigma receptor type 2 was determined by the displacement of [3H]DTG/dextrallorphan radioligand; set-up: species or system Rattus norvegicus
[2] = target: Monoamine transporters; Norepininephrine & dopamine (Rattus norvegicus) (UniProt P23977+Q9WTR4); assay: Ratio of binding affinities for dopamine and norepinephrine transporters; type: protein assay
[3] = target: Monoamine transporters; serotonin & dopamine (Rattus norvegicus) (UniProt P31652+P23977); assay: Ratio for the binding affinities of dopamine transporter over serotonin transporter; type: protein assay
Monoamine transporters; serotonin & dopamine (Rattus norvegicus), sequence (P23977 whole entry, looked up): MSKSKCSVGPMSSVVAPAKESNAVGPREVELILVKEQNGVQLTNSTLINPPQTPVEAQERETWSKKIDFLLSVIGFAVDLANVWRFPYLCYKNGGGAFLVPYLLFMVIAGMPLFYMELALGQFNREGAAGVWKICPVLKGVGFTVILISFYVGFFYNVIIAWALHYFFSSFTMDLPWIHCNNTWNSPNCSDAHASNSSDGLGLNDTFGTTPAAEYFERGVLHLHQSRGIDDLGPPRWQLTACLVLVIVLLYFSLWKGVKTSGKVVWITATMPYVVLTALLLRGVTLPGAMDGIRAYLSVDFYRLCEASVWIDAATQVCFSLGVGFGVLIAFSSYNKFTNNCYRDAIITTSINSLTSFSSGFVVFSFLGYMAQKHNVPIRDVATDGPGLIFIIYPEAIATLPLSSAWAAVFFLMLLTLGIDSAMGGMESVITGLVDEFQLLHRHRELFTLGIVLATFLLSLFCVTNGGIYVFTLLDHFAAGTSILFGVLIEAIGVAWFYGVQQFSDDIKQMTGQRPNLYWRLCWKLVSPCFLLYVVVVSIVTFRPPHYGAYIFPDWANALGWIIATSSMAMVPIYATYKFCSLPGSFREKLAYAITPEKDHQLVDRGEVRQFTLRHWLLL
Monoamine transporters; serotonin & dopamine (Rattus norvegicus), sequence (P31652 whole entry, looked up): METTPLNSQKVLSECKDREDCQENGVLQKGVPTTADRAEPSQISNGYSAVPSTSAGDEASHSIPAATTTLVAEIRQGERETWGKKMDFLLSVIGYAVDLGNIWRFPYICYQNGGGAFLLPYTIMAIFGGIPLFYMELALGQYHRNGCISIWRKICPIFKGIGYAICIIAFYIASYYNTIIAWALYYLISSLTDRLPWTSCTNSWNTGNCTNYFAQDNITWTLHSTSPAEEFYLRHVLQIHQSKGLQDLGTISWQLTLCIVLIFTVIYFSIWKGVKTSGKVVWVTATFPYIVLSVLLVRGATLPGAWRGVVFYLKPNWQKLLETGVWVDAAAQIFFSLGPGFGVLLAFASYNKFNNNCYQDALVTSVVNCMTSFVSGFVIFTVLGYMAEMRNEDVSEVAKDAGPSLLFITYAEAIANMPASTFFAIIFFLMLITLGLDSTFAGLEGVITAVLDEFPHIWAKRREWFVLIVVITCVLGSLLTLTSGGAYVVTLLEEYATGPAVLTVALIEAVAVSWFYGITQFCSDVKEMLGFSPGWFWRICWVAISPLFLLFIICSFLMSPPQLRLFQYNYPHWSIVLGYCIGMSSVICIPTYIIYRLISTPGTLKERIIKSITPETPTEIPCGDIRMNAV

Cavia porcellus = species: Cavia porcellus; assay: Ratio of binding affinities for dopamine transporter over sigma-1 receptor
[4] = target: Norepinephrine transporter (Rattus norvegicus, UniProt Q9WTR4); assay: Displacement of [3H]nisoxetine from rat brain norepinephrine transporter; type: tissue-based
Norepinephrine transporter, sequence (Q9WTR4 whole entry): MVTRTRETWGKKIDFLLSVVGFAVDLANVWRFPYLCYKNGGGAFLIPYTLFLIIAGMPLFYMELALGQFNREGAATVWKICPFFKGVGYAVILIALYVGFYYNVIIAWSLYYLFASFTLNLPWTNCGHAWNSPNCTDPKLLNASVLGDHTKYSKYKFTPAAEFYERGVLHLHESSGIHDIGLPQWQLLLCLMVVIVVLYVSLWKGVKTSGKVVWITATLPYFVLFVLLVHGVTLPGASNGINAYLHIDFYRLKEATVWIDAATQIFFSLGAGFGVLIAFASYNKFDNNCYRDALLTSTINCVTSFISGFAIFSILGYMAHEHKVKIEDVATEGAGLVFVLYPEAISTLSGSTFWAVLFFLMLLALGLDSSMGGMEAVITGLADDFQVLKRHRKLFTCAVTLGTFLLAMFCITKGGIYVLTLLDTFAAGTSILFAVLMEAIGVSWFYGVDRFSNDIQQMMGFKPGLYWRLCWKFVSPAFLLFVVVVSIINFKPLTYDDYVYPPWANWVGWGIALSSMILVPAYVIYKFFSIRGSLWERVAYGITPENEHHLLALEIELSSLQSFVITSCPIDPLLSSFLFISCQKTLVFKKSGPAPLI

[5] = target: Sodium-dependent serotonin transporter (Rattus norvegicus, UniProt P31652); assay: Binding affinity against serotonin transporter by displacement of [3H]citalopram in rat brain; type: tissue-based
Sodium-dependent serotonin transporter, sequence (P31652 whole entry): as the sequence (P31652 whole entry, looked up) above

Sodium-dependent dopamine transporter, sequence (P23977 whole entry): as the sequence (P23977 whole entry, looked up) above

SMILES	Ki [1] [nM]	Ki (Sigma 2 receptor) [nM]	Ratio [2]	Ratio [3]	Ratio (Cavia porcellus)	Ki [4] [nM]	Ki [5] [nM]
C[C@@H]1CN(CCCN(c2ccccc2)c2ccccc2)C[C@@H](C)N1CCc1ccc(Cl)c(Cl)c1	272	216	> 110	18	0.1		
C[C@@H]1CN(CCCN(c2ccc(F)cc2)c2ccc(F)cc2)C[C@@H](C)N1CCCc1ccccc1	22.8	18.6	45	94	0.5		
C[C@@H]1CN(CCCn2c3ccc([N+](=O)[O-])cc3c3cc([N+](=O)[O-])ccc32)C[C@@H](C)N1	174000						
Fc1ccc(N(CCCN2CCN(Cc3ccccc3)CC2)c2ccc(F)cc2)cc1	27.6	78.1	190	140	0.5	5210	3730
Fc1ccc(N(CCCN2CCN(CCCc3ccccc3)CC2)c2ccc(F)cc2)cc1	18.1		38	67	3.7	682	1210
C[C@@H]1CN(CCCN(c2ccc(F)cc2)c2ccc(F)cc2)C[C@@H](C)N1CCc1ccc(Cl)c(Cl)c1	180						4350
CCN(CC)CCOC(=O)C1(c2ccccc2)CCCC1	5180						
Fc1ccc(N(CCCN2CCNCC2)c2ccc(F)cc2)cc1	60.8	385	7	2	23	396	133
C[C@@H]1CN(CCCN(c2ccccc2)c2ccccc2)C[C@@H](C)N1CCCc1ccccc1			60	20	1.6		
OC(CCN1CCN(CCCN(c2ccc(F)cc2)c2ccc(F)cc2)CC1)c1ccccc1 (configuration not stated)	8.5						803
CCCN1CCC[C@@H](c2cccc(O)c2)C1 [PRECLAMOL]	3270						

Other lines, results leading:

Ki [1] [nM]	Ki (Sigma 2 receptor) [nM]	Ratio [2]	Ratio [3]	Ratio (Cavia porcellus)	Ki [4] [nM]	Ki [5] [nM]	SMILES
		8	87	0.2			C[C@@H]1CN(CCCN(c2ccccc2)c2ccccc2)C[C@@H](C)N1
109				5.5			C[C@@H]1CN(CCCn2c3ccccc3c3cc([N+](=O)[O-])ccc32)C[C@@H](C)N1
2400				2.4			C[C@@H]1CN(CCCn2c3ccccc3c3cc(N)ccc32)C[C@@H](C)N1
436				1.3			C[C@@H]1CN(CCCn2c3ccccc3c3ccccc32)C[C@@H](C)N1C
263				0.4			C[C@@H]1CN(CCCn2c3ccccc3c3ccccc32)C[C@@H](C)N1CCCc1ccccc1
3890				1.1			C[C@@H]1CN(CCCn2c3ccc(Br)cc3c3cc(Br)ccc32)C[C@@H](C)N1
77.1		219	170	1.6			C[C@@H]1CN(CCCN(c2ccc(F)cc2)c2ccc(F)cc2)C[C@@H](C)N1

From ChEMBL document CHEMBL1145802, “Dual probes for the dopamine transporter and sigma1 receptors: novel piperazinyl alkyl-bis(4'-fluorophenyl)amine analogues as potential cocaine-abuse therapeutic agents” (J Med Chem, 2003)
